Each compound was assayed against T1, B1R receptor of the rat (CHO K1 cells stably transfected with the B1R gene of the rat) (Rattus norvegicus, UniProt P97583) (assay: Functional study on the bradykinin receptor 1 (B1R), Ca2+ fluorescence (Fluo-4) FLIPR/Novostar assay, rB1R cells). Conditions: CHO-K1, 10 μM, read-out: % Inhibition (r-B1R) at 10 μM.
T1 construct: expressed in transfected cells; host or cells: CHO K1 cells (Chinese hamster ovary), stably transfected
T1 sequence (P97583 1-337): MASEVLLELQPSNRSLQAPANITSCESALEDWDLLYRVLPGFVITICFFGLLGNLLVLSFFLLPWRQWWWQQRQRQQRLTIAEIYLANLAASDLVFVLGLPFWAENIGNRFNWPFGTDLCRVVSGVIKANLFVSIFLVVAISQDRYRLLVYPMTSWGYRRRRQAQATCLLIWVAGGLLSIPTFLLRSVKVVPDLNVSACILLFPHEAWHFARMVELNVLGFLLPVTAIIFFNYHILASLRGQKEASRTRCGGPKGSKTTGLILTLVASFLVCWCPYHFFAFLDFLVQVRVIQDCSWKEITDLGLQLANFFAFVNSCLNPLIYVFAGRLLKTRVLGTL
Assay type: cell-based
Procedure: The agonistic or antagonistic action of substances can be quantified on the bradykinin receptor 1 (B1R) of the species human and rat using ectopically expressing cell lines (CHO K1 cells) and with the aid of a Ca^2+-sensitive dye (Fluo-4) using a fluorescent imaging plate reader (FLIPR). The indication in % activation is based on the Ca^2+ signal after addition of Lys-Des-Arg^9-bradykinin (0.5 nM) or Des-Arg^9-bradykinin (100 nM). Antagonists lead to suppression of the Ca^2+ influx after the addition of the agonist. % Inhibition compared with the maximum achievable inhibition is indicated.
The agonistic or antagonistic action of substances can be determined on the bradykinin receptor 1 (B1R) of the species human and rat using the following assay. According to this assay, the increase in intracellular Ca^2+ following administration of a B1R agonist is quantified with the aid of a Ca^2+-sensitive dye (Fluo-4 type, Molecular Probes Europe BV, Leiden, Netherlands) using a Fluorescent Imaging Plate Reader (FLIPR, Molecular Devices, Sunnyvale, USA) and/or using a Novostar (BMG Labtech GmbH, Offenburg, Germany).
Chinese hamster ovary cells (CHO K1 cells) which have been stably transfected with the human B1R gene (hB1R cells) or with the B1R gene of the rat (rB1R cells) are used. For functional studies, the cells are plated out on black 96-well plates having a clear base (BD Biosciences, Heidelberg, Germany or Greiner, Frickenhausen, Germany) in a density of 20,000-35,000 cells/well. The cells are left overnight at 37° C. and with 5% CO2 in culture medium (hB1R cells: Nutrient Mixture Ham's F12, Gibco Invitrogen GmbH, Karlsruhe, Germany or DMEM, Sigma-Aldrich, Taufkirchen, Germany; rB1R cells: D-MEM/F12, Gibco Invitrogen GmbH, Karlsruhe, Germany), with 10 vol. % FBS (fetal bovine serum, Gibco Invitrogen GmbH, Karlsruhe, Germany or PAN Biotech GmbH, Aidenbach, Germany). On the following day, the cells are loaded for 60 minutes at 37° C. with 2.13 μM Fluo-4 (Molecular Probes Europe BV, Leiden, Netherlands) in HBSS buffer (Hank's buffered saline solution, Gibco Invitrogen GmbH, Karlsruhe, Germany) […] (Sigma-Aldrich, Taufkirchen, Germany) and 10 mM HEPES (Sigma-Aldrich, Taufkirchen, Germany). The plates are then washed twice with HBSS buffer, and HBSS buffer additionally containing 0.1% BSA (bovine serum albumin; Sigma-Aldrich, Taufkirchen, Germany), 5.6 mM glucose and 0.05% gelatin (Merck KGaA, Darmstadt, Germany) is added to the plates. After incubation for a further 20 minutes at room temperature, the plates are inserted into the FLIPR or Novostar for Ca^2+ measurement. Alternatively, washing is carried out with buffer A (15 mM HEPES, 80 mM NaCl, 5 mM KCl, 1.2 mM CaCl2, 0.7 mM MgSO4, 2 g/l glucose, 2.5 mM probenecid) followed by loading with buffer A with added 2.5 μM Fluo-4 and 0.025% Pluronic F127 (Sigma-Aldrich, Taufkirchen, Germany). The cells are then washed twice with buffer A and incubated for 30 minutes at room temperature with buffer A additionally containing 0.05% BSA and 0.05% gelatin and are then inserted into the FLIPR or Novostar for Ca^2+ measurement. The Ca^2+-dependent fluorescence is measured before and after the addition of substances (λex=488 nm, λem=540 nm). Quantification is carried out by measuring the highest fluorescence intensity (FC, fluorescence counts) over time.
The FLIPR protocol consists of 2 substance additions, which are pipetted in the FLIPR. In the case of measurements using the Novostar, only the second substance addition is pipetted in the device. Both devices measure the fluorescence intensity over time. Test substances (10 μM) are first pipetted onto the cells and the intracellular Ca^2+ increase is compared with the control (hB1R: Lys-Des-Arg^9-bradykinin>=50 nM; rB1R: Des-Arg^9-bradykinin>=1 μM). This gives the % activation, based on the Ca^2+ signal after addition of Lys-Des-Arg^9-bradykinin (>=50 nM) or Des-Arg^9-bradykinin (>=1 μM). […]

inhibition at 10 µM [%]	Structure (SMILES)
108	CN(C(=O)c1ccc2c(c1)C(N(C)C(=O)C1CC1)CC2)C1CCN(c2ccncc2)CC1 (stereo not shown) [CC_H-212, 3-(Cyclopropanecarbonyl-methyl-amino)-N-methyl-N-(1-pyridin-4-yl-piperidin-4-yl)-2,3-dihydro-1H-indene-5-carboxylic acid amide]
110	CN(C(=O)c1ccc2c(c1)C(N(C)C(=O)CC(C)(C)C)CC2)C1CCN(c2ccncc2)CC1 (stereo not shown) [CC_H-213, 3-(3,3-Dimethyl-butanoyl-methyl-amino)-N-methyl-N-(1-pyridin-4-yl-piperidin-4-yl)-2,3-dihydro-1H-indene-5-carboxylic acid amide]
65	CC(=O)N(C)C1CCc2ccc(C(=O)N(C)C3CCN(c4ccncc4)CC3)cc21 (stereo not shown) [CC_H-215, 3-(Acetyl-methyl-amino)-N-methyl-N-(1-pyridin-4-yl-piperidin-4-yl)-2,3-dihydro-1H-indene-5-carboxylic acid amide]
110	CN(C(=O)c1ccc2c(c1)C(N(C)C(=O)c1cccc(C(F)(F)F)c1Cl)CC2)C1CCN(c2ccncc2)CC1 (stereo not shown) [CC_H-216, 3-[[2-Chloro-3-(trifluoromethyl)-benzoyl]-methyl-amino]-N-methyl-N-(1-pyridin-4-yl-piperidin-4-yl)-2,3-dihydro-1H-indene-5-carboxylic acid amide]
94	CN(C(=O)c1ccc2c(c1)C(N(C)C(=O)Nc1ccccc1Cl)CC2)C1CCN(c2ccncc2)CC1 (stereo not shown) [CC_H-217, 3-[[(2-Chlorophenyl)-carbamoyl]-methyl-amino]-N-methyl-N-(1-pyridin-4-yl-piperidin-4-yl)-2,3-dihydro-1H-indene-5-carboxylic acid amide]
109	CN(C(=O)c1ccc2c(c1)C(N(C)C(=O)Nc1cccc(Cl)c1)CC2)C1CCN(c2ccncc2)CC1 (stereo not shown) [CC_H-218, 3-[[(3-Chlorophenyl)-carbamoyl]-methyl-amino]-N-methyl-N-(1-pyridin-4-yl-piperidin-4-yl)-2,3-dihydro-1H-indene-5-carboxylic acid amide]
86	CN(C(=O)c1ccc2c(c1)C(N(C)C(=O)Nc1c(Cl)cccc1Cl)CC2)C1CCN(c2ccncc2)CC1 (stereo not shown) [CC_H-219, 3-[[(2,6-Dichloro-phenyl)-carbamoyl]-methyl-amino]-N-methyl-N-(1-pyridin-4-yl-piperidin-4-yl)-2,3-dihydro-1H-indene-5-carboxylic acid amide]
107	CN(C(=O)c1ccc2c(c1)C(N(C)C(=O)Nc1cccc(Cl)c1Cl)CC2)C1CCN(c2ccncc2)CC1 (stereo not shown) [CC_H-220, 3-[[(2,3-Dichloro-phenyl)-carbamoyl]-methyl-amino]-N-methyl-N-(1-pyridin-4-yl-piperidin-4-yl)-2,3-dihydro-1H-indene-5-carboxylic acid amide]
67	CN(C(=O)c1ccc2c(c1)C(N(C)C(=O)Nc1cc(Cl)ccc1Cl)CC2)C1CCN(c2ccncc2)CC1 (stereo not shown) [CC_H-221, 3-[[(2,5-Dichloro-phenyl)-carbamoyl]-methyl-amino]-N-methyl-N-(1-pyridin-4-yl-piperidin-4-yl)-2,3-dihydro-1H-indene-5-carboxylic acid amide]
110	CN(C(=O)c1ccc2c(c1)C(NC(=O)c1cc(F)ccc1Cl)CC2(C)C)C1CCN(c2ccncc2)CC1 (stereo not shown) [CC_H-222, 3-[(2-Chloro-5-fluoro-benzoyl)amino]-N,1,1-trimethyl-N-(1-pyridin-4-yl-piperidin-4-yl)-2,3-dihydro-indene-5-carboxylic acid amide]
109	CN(C(=O)c1ccc2c(c1)C(NC(=O)c1cc(C(F)(F)F)ccc1Cl)CC2(C)C)C1CCN(c2ccncc2)CC1 (stereo not shown) [CC_H-223, 3-[[2-Chloro-5-(trifluoromethyl)-benzoyl]amino]-N,1,1-trimethyl-N-(1-pyridin-4-yl-piperidin-4-yl)-2,3-dihydro-indene-5-carboxylic acid amide]
110	Cc1ccc(F)c(C(=O)NC2CC(C)(C)c3ccc(C(=O)N(C)C4CCN(c5ccncc5)CC4)cc32)c1Cl (stereo not shown) [CC_H-224, 3-[(2-Chloro-6-fluoro-3-methyl-benzoyl)amino]-N,1,1-trimethyl-N-(1-pyridin-4-yl-piperidin-4-yl)-2,3-dihydro-indene-5-carboxylic acid amide]
112	CN(C(=O)c1ccc2c(c1)C(NC(=O)c1c(Cl)cccc1C(F)(F)F)CC2(C)C)C1CCN(c2ccncc2)CC1 (stereo not shown) [CC_H-225, 3-[[2-Chloro-6-(trifluoromethyl)-benzoyl]amino]-N,1,1-trimethyl-N-(1-pyridin-4-yl-piperidin-4-yl)-2,3-dihydro-indene-5-carboxylic acid amide]
99	CN(C(=O)c1ccc2c(c1)C(NC(=O)C1CC1)CC2(C)C)C1CCN(c2ccncc2)CC1 (stereo not shown) [CC_H-226, 3-(Cyclopropanecarbonylamino)-N,1,1-trimethyl-N-(1-pyridin-4-yl-piperidin-4-yl)-2,3-dihydro-indene-5-carboxylic acid amide]
112	CN(C(=O)c1ccc2c(c1)C(NC(=O)CC(C)(C)C)CC2(C)C)C1CCN(c2ccncc2)CC1 (stereo not shown) [CC_H-227, 3-(3,3-Dimethyl-butanoylamino)-N,1,1-trimethyl-N-(1-pyridin-4-yl-piperidin-4-yl)-2,3-dihydro-indene-5-carboxylic acid amide]
107	COCC(=O)NC1CC(C)(C)c2ccc(C(=O)N(C)C3CCN(c4ccncc4)CC3)cc21 (stereo not shown) [CC_H-228, 3-[(2-Methoxy-acetyl)amino]-N,1,1-trimethyl-N-(1-pyridin-4-yl-piperidin-4-yl)-2,3-dihydro-indene-5-carboxylic acid amide]
104	CC(=O)NC1CC(C)(C)c2ccc(C(=O)N(C)C3CCN(c4ccncc4)CC3)cc21 (stereo not shown) [CC_H-229, 3-Acetylamino-N,1,1-trimethyl-N-(1-pyridin-4-yl-piperidin-4-yl)-2,3-dihydro-indene-5-carboxylic acid amide]
110	Cc1cccc(Cl)c1S(=O)(=O)NC1CC(C)(C)c2ccc(C(=O)N(C)C3CCN(c4ccncc4)CC3)cc21 (stereo not shown) [CC_H-230, 3-[[(2-Chloro-6-methyl-phenyl)sulfonyl]amino]-N,1,1-trimethyl-N-(1-pyridin-4-yl-piperidin-4-yl)-2,3-dihydro-indene-5-carboxylic acid amide]
111	CN(C(=O)c1ccc2c(c1)C(NC(=O)c1cccc(C(F)(F)F)c1Cl)CC2(C)C)C1CCN(c2ccncc2)CC1 (stereo not shown) [CC_H-231, 3-[[2-Chloro-3-(trifluoromethyl)-benzoyl]amino]-N,1,1-trimethyl-N-(1-pyridin-4-yl-piperidin-4-yl)-2,3-dihydro-indene-5-carboxylic acid amide]

— US8680159B2, “Bradykinin 1 receptor modulating compounds” (Gruenenthal GmbH, priority 2010, dated 2014)
